Experimental data as given in US20210255193A1, “LYSINE REACTIVE PROBES AND USES THEREOF” (The Scripps Research Institute, priority 2017, published 2021).

Assays:
Experiment in all cases: competitive isoTOP-ABPP
Assay type in all cases: binding
ADK Adenosine kinase = biological target: T1, ADK Adenosine kinase (Homo sapiens, UniProt P55263); design: key to isoTOP-ABPP reactivity ratio at lysine P55263_K88: R = MS1 peak area ratio, DMSO (heavy) / compound-treated (light); details: 50 uM, in vitro; for R value (DMSO/fragment) for probe 1 labeling: P55263_K88; for R value (DMSO/fragment) for probe 1 labeling / isoTOP-ABPP reactivity ratio at lysine P55263_K88: 231 sol
T1 construct: isoTOP-ABPP experiments performed in cell lysates (in vitro); endogenous in cells; host or cells: soluble proteome of human cancer cell lines (MDA-MB-231, Ramos, Jurkat)
Experimental: (§1) In vitro covalent fragment treatment for isoTOP-ABPP. All compounds were made up as solutions in DMSO (100×) and were used at a final concentration of 50 μM for activated esters and 100 μM for guanidinylating agents. For each profiling sample, 0.5 ml of lysate was treated with 5 μl of the 100× compound stock solution or 5 μl of DMSO. Samples were treated with activated esters for
(§2) STP-alkyne labeling and click chemistry. For concentration-dependent reactivity measurements by isoTOP-ABPP, 0.5 ml proteome aliquots were treated at ambient temperature with 1 mM STP-alkyne 1 (5 μl of 100 mM stock in DMSO) and 0.1 mM STP alkyne 1 (5 μl of 10 mM stock in DMSO), respectively. For competitive isoTOP-ABPP, after in vitro fragment treatment (detailed above), the samples were labeled for 1 h at ambient temperature with 0.1 mM STP-alkyne 1 (5 μl of 10 mM stock in DMSO). Samples were conjugated by copper-mediated azide-alkyne cycloaddition (CuAAC) to either the light (1 mM STP-alkyne or fragment treated) or heavy (0.1 mM STP-alkyne or DMSO treated) TEV tags (10 μl of 5 mM stocks in DMSO, final concentration=100 μM) using tris(2-carboxyethyl)phosphine hydrochloride
(§3) R value calculation and processing. The ratios of light and heavy MS1 peaks for each unique peptide were quantified with a CIMAGE software using default parameters (3 MS1 acquisitions per peak and signal to noise threshold set to 2.5). For reactivity measurements by isoTOP-ABPP, the R value was calculated from the ratio of MS1 peak areas, comparing the 1 mM STP alkyne sample (light TEV tag) with the 0.1 mM STP alkyne sample (heavy TEV tag). For competitive isoTOP-ABPP, the R value was calculated from the ratio of MS1 peak areas, comparing the DMSO treated sample (heavy TEV tag) with the compound treated sample (light TEV tag). […] Ratios for unique peptide entries are calculated for each experiment; overlapping peptides with the same modified lysine (for example, different charge states, MudPIT chromatographic steps or tryptic termini) are grouped together and the median ratio is reported as the final ratio (R). The peptide ratios reported by CIMAGE were further filtered to ensure the removal or correction of low-quality ratios in each individual data set. The quality filters applied were the following: removal of half tryptic peptides; for ratios with high standard deviations from the median (90% of the median or above) the lowest ratio was taken instead of the median; removal of peptides with R=20 and only a single MS2 event triggered during the elution of the parent ion; manual annotation of all the peptides with ratios of 20, removing any peptides with low quality elution profiles that remained after the previous curation steps (only done for competitive isoTOP-ABPP).
(§4) Cross-data processing for fragment screening. For compound treated samples, biological replicates of the same condition were averaged, if the standard deviation was below 60% of the mean; otherwise, for lysines with at least one R value <4 for a particular compound, the lowest value of the ratio set was taken. For lysines, where all R values for a particular compound were ≥4, the average was reported. For peptides containing several possible modified lysines, the lysine with the highest number of quantification events was used for analysis and the remaining, redundant peptides were reported as alternative modification sites. Peptides included in the aggregate dataset (those used for further bioinformatics and statistical analyses) were required to have been quantified in 2 experiments for competitive isoTOP-ABPP. Lysines were categorized as liganded, if they had at least one ratio R≥4 (hit fragments). For liganded lysines with R=20 for all liganding events, lysines were required to have been quantified with R=20 in two separate experiments and were further required to have been quantified with R<20 in one additional experiment.

[1] = biological target: T2, ISOC2 Isochorismatase domain-containing protein 2, mitochondrial (Homo sapiens, UniProt Q96AB3); design: key to isoTOP-ABPP reactivity ratio at lysine Q96AB3_K178: R = MS1 peak area ratio, DMSO (heavy) / compound-treated (light); capped at 20; details: 50 uM, in vitro; for R value (DMSO/fragment) for probe 1 labeling: Q96AB3_K178; for R value (DMSO/fragment) for probe 1 labeling / isoTOP-ABPP reactivity ratio at lysine Q96AB3_K178: 231 sol
T2 construct: isoTOP-ABPP experiments performed in cell lysates (in vitro); endogenous in cells; host or cells: soluble proteome of human cancer cell lines (MDA-MB-231; Ramos and Jurkat also prepared)
T2 sequence (Q96AB3 1-205): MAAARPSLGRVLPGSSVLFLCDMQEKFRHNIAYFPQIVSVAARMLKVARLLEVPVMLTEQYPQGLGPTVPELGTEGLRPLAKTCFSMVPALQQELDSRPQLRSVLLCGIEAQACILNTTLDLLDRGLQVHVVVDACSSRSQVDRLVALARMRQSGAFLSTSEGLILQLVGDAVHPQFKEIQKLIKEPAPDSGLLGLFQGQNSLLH
Experimental: as §1, §2, §3, §4

HK1 Hexokinase-1 = biological target: T3, HK1 Hexokinase-1 (Homo sapiens, UniProt P19367); design: key to isoTOP-ABPP reactivity ratio at lysine P19367_K510: R = MS1 peak area ratio, DMSO (heavy) / compound-treated (light); details: 50 uM, 231 sol, in vitro; for R value (DMSO/fragment) for probe 1 labeling: P19367_K510
T3 construct: isoTOP-ABPP experiments performed in cell lysates (in vitro); endogenous in cells; host or cells: soluble proteome of human cancer cell lines (MDA-MB-231; Ramos and Jurkat also prepared)
T3 sequence (P19367 1-917): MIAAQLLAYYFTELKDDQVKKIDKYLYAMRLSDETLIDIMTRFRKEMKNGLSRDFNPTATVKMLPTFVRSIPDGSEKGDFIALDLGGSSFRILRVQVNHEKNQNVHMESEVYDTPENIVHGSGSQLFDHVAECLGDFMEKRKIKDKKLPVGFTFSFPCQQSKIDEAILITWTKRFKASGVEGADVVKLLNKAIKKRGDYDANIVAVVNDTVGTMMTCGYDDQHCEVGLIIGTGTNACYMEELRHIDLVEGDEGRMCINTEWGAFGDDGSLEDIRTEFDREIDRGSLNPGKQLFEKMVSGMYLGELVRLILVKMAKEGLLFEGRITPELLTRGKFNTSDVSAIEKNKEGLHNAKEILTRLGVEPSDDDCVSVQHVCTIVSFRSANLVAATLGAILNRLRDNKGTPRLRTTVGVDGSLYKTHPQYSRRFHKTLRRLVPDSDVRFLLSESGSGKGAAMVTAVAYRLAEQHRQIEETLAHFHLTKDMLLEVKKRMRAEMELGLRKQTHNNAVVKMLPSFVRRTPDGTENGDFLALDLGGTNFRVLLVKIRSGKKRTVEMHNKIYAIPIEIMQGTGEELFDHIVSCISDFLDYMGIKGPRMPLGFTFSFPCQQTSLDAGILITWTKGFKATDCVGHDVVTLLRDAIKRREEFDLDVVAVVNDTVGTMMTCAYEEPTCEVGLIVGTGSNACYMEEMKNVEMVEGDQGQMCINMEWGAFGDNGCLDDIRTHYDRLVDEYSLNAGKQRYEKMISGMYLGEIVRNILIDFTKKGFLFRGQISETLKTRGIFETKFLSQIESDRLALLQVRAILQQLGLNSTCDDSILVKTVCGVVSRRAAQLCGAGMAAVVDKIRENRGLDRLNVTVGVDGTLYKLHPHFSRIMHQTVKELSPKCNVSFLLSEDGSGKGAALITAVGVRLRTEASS
Experimental: as §1, §2, §3, §4

T1 sequence (P55263 whole entry, the tested form may be a part): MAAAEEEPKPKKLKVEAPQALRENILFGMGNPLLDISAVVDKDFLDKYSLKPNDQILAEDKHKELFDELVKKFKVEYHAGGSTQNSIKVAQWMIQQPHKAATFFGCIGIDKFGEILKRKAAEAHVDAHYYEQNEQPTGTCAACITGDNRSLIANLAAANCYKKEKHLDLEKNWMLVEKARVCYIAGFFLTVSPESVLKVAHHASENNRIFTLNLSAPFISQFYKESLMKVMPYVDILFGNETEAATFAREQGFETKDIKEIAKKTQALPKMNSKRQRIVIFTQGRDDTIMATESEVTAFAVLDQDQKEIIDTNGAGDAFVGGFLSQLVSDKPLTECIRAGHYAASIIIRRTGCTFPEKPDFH

SMILES | R value (DMSO/fragment) for probe 1 labeling (ADK Adenosine kinase) | R value (DMSO/fragment) for probe 1 labeling [1] | R value (DMSO/fragment) for probe 1 labeling (HK1 Hexokinase-1) | isoTOP-ABPP reactivity ratio at lysine P55263_K88 (ADK Adenosine kinase) | isoTOP-ABPP reactivity ratio at lysine Q96AB3_K178 [1] | isoTOP-ABPP reactivity ratio at lysine P19367_K510 (HK1 Hexokinase-1) | also measured
O=C(CCc1cn(-c2ccccc2)nc1-c1ccccc1)Oc1c(F)c(F)c(F)c(F)c1F [fragment 19, Pentafluorophenyl 3-(1,3-diphenyl-1H-pyrazol-4-yl)propanoate] | 0.8 | 1.2 | 1.2 |  |  |  | 
O=C(Oc1c(F)c(F)c(F)c(F)c1F)C(c1ccccc1)c1ccccc1 [fragment 20, Pentafluorophenyl 2,2-diphenylacetate] | 0.8 | 0.9 | 0.9 |  |  |  | 
O=C(Oc1c(F)c(F)c(F)c(F)c1F)c1cc(C(F)(F)F)cc(C(F)(F)F)c1 [fragment 21, Pentafluorophenyl 3,5-bis(trifluoromethyl)benzoate] | 0.8 | 1.0 | 1.0 |  |  |  | 
Cn1cc(CC(=O)Oc2c(F)c(F)c(F)c(F)c2F)c2ccccc21 [fragment 22, Pentafluorophenyl 2-(1-methyl-1H-indol-3-yl)acetate] | 1.0 | 1.0 | 1.3 |  |  |  | 
COc1cc(CCC(=O)Oc2c(F)c(F)c(F)c(F)c2F)cc(OC)c1OC [fragment 23, Pentafluorophenyl 3-(3,4,5-trimethoxyphenyl)propanoate] | 0.7 | 1.2 | 2.0 |  |  |  | 
O=C(Oc1c(F)c(F)c(F)c(F)c1F)C1CCN(C(=O)OCc2ccccc2)CC1 [fragment 24, 1-Benzyl 4-(pentafluorophenyl) piperidine-1,4-dicarboxylate] |  |  |  | 1.0 |  |  | 
O=C(Oc1c(F)c(F)c(F)c(F)c1F)c1ccc2ccccc2n1 [fragment 25, Pentafluorophenyl quinoline-2-carboxylate] |  |  |  | 0.8 | 1.4 | 1.2 | 
O=C(CCc1coc2cc(F)ccc2c1=O)Oc1c(F)c(F)c(F)c(F)c1F [fragment 26, Pentafluorophenyl 3-(7-fluoro-4-oxo-4H-chromen-3-yl)propanoate] |  |  |  | 0.9 |  | 3.4 | 
O=C(CN1C(=O)c2ccccc2C1=O)Oc1c(F)c(F)c(F)c(F)c1F [fragment 27, Pentafluorophenyl 2-(1,3-dioxoisoindolin-2-yl)acetate] |  |  |  | 0.8 | 1.3 | 1.3 | 
CCn1cc(C(=O)Oc2c(F)c(F)c(F)c(F)c2F)c(=O)c2ccc(C)nc21 [fragment 28, Pentafluorophenyl 1-ethyl-7-methyl-4-oxo-1,4-dihydro-1,8-naphthyridine-3-carboxylate] |  |  |  | 0.8 | 1.8 | 0.9 | 
O=C(CCc1cn(-c2ccccc2)nc1-c1ccccc1)Oc1ccc([N+](=O)[O-])cc1[N+](=O)[O-] [fragment 29, 2,4-Dinitrophenyl 3-(1,3-diphenyl-1H-pyrazol-4-yl)propanoate] |  |  |  | 1.0 | 1.7 | 10.8 | 
O=C(Oc1ccc([N+](=O)[O-])cc1[N+](=O)[O-])C(c1ccccc1)c1ccccc1 [fragment 30, 2,4-Dinitrophenyl 2,2-diphenylacetate] |  |  |  | 0.8 | 1.0 | 1.0 | 
O=C(Oc1ccc([N+](=O)[O-])cc1[N+](=O)[O-])c1cc(C(F)(F)F)cc(C(F)(F)F)c1 [fragment 31, 2,4-Dinitrophenyl 3,5-bis(trifluoromethyl)benzoate] |  |  |  | 0.7 | 2.1 | 1.1 | 
Cn1cc(CC(=O)Oc2ccc([N+](=O)[O-])cc2[N+](=O)[O-])c2ccccc21 [fragment 32, 2,4-Dinitrophenyl 2-(1-methyl-1H-indol-3-yl)acetate] |  |  |  | 1.4 | 1.1 | 8.6 | 
COc1cc(CCC(=O)Oc2ccc([N+](=O)[O-])cc2[N+](=O)[O-])cc(OC)c1OC [fragment 33, 2,4-Dinitrophenyl 3-(3,4,5-trimethoxyphenyl)propanoate] |  |  |  | 0.9 | 9.1 | 20.0 | 
O=C(Oc1ccc([N+](=O)[O-])cc1[N+](=O)[O-])c1ccccc1Nc1cccc(C(F)(F)F)c1 [fragment 40, 2,4-Dinitrophenyl 2-((3-(trifluoromethyl)phenyl)amino)benzoate] |  |  |  |  |  |  | isoTOP-ABPP ratio (R) at liganded lysine P55263_K88 (ADK Adenosine kinase; sol, 231): 0.9; isoTOP-ABPP ratio (R) at liganded lysine Q96AB3_K178 ([1]; sol, 231): 0.9
